These results are taken from ChEMBL document CHEMBL5576083, “Structure-Based Design and Synthesis of Covalent Inhibitors for Deubiquitinase and Acetyltransferase ChlaDUB1 of Chlamydia trachomatis” (J Med Chem, 2024).

Converted amounts (≈) assume the structure as drawn. The source made the active and inactive calls. The calls are words filed in the database; no cut-off is given here.

Assay [1] addresses Ubiquitin carboxyl-terminal hydrolase isozyme L1 (Homo sapiens) (UniProt P09936). In words: Inhibition of 6His-tagged human UCHL1 using Ub-Rh110Gly as fluorogenic substrate at 40 uM preincubated for 1 hr followed by substrate addition by plate reader analysis.
Assay [2] concerns Chlamydia trachomatis. In words: Antimicrobial activity against Chlamydia trachomatis serovar L2 infected in human HeLa cells assessed as reduction in inclusion area at 1.56 ug/ml measured after 24 hrs of post-infection by microscopic analysis. The assay is classed as functional. The settings on record: dose 1.56 µg/ml.
Assay [3] has as its system Chlamydia trachomatis. Put plainly: Anti-chlamydial activity against Chlamydia trachomatis serovar L2 infected in human HEp-2 cells assessed as inhibition of chlamydial inclusion incubated for 24 hrs by Alexa488/DAPI staining based immunofluorescence assay. The class given is functional, organism-based. The settings on record: serovar L2, HEp-2, 24 h.
The subject of assay [4] is Chlamydia trachomatis. In words: Antimicrobial activity against Chlamydia trachomatis serovar L2 infected in human HeLa cells assessed as reduction in microbial progeny at 3.13 ug/ml measured after 24 hrs of post-infection by immunofluorescence analysis. The class given is functional. More on the design: scale not given: the % may be the effect or the level left. The settings on record: dose 3.13 µg/ml.

In assay [5] the test system is Chlamydia trachomatis. Put plainly: Antimicrobial activity against Chlamydia trachomatis serovar L2 infected in human HeLa cells assessed as reduction in inclusion area at 12.5 ug/ml measured after 24 hrs of post-infection by microscopic analysis. The assay is classed as functional. The settings on record: dose 12.5 µg/ml.
The target of assay [6] is T1, Ubiquitin carboxyl-terminal hydrolase 28 (Homo sapiens) (UniProt Q96RU2).
T1 sequence (whole entry): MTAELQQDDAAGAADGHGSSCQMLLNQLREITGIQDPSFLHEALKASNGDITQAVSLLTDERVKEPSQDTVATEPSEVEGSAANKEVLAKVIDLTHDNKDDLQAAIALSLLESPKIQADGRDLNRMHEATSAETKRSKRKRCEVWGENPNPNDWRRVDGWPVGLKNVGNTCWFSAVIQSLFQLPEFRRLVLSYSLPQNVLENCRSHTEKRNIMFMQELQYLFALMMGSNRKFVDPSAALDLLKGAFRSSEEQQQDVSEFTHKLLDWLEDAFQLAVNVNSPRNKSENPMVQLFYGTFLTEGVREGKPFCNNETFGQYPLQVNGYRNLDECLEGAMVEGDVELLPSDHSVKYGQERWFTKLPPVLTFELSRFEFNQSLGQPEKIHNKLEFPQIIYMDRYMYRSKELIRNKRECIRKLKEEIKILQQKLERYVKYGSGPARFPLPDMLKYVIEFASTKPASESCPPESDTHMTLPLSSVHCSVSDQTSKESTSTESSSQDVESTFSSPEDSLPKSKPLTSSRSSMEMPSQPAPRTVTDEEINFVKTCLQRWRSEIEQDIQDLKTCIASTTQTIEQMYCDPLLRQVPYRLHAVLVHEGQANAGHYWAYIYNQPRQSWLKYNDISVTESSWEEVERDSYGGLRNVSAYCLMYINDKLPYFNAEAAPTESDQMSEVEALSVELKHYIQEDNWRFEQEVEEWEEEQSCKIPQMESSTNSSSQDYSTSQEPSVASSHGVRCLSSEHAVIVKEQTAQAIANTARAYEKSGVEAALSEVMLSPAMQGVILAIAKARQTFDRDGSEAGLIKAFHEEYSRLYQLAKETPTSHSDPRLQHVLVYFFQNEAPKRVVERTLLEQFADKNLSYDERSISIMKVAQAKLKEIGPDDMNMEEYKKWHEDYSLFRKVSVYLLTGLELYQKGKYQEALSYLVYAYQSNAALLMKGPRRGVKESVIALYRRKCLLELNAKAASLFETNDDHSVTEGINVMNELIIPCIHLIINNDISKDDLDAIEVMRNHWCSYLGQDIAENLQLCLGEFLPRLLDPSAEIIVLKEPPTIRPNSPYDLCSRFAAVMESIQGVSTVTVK
In words: Inhibition of human USP28 (149 to 707 residues) expressed in Escherichia coli Rosetta 2 (DE3) cells using Ub-Rh110Gly as fluorogenic substrate at 40 uM preincubated for 1 hr followed by substrate addition by plate reader analysis.

Assay [7] concerns Chlamydia trachomatis. In words: Antimicrobial activity against Chlamydia trachomatis serovar L2 infected in human HEp-2 cells assessed as fold change in inclusion forming unit at 1.56 to 12.5 ug/ml measured at 8 to 48 hrs of post-infection by immunofluorescence based microscopic analysis. The class given is functional. The settings on record: dose 1.56-12.5 µg/ml; time 8-48 hrs.

Assay [8] can be described thus: Covalent inhibition of C-terminal 6His-tagged Chlamydia trachomatis DUB1 (130 to 401 residues) expressed in Escherichia coli Rosetta 2 (DE3) cells using Ub-Rh110Gly as fluorogenic substrate preincubated for 1 hr followed by substrate addition by plate reader analysis.
Assay [9] is described as follows: Binding affinity to C-terminal 6His-tagged Chlamydia trachomatis DUB1 (130 to 401 residues) expressed in Escherichia coli Rosetta 2 (DE3) cells using Ub-Rh110Gly as fluorogenic substrate assessed as inhibition constant preincubated for 60 mins followed by substrate addition measured after 360 mins by plate reader analysis.
The subject of assay [10] is Chlamydia trachomatis. In words: Antimicrobial activity against Chlamydia trachomatis serovar L2 infected in human HeLa cells assessed as reduction in microbial progeny at 6.25 ug/ml measured after 24 hrs of post-infection by immunofluorescence analysis. The assay is classed as functional. More on the design: scale not given: the % may be the effect or the level left. To be noted: dose 6.25 µg/ml.

For assay [11], the system named is Chlamydia trachomatis. Put plainly: Antimicrobial activity against Chlamydia trachomatis serovar L2 infected in human HeLa cells assessed as change in inclusion morphology at 1.56 to 12.5 ug/ml measured after 24 hrs of post-infection by immunofluorescence based microscopic analysis. The settings on record: dose 1.56-12.5 µg/ml. The assay is classed as functional, organism-based.

Assay [12] deals with T2, Ubiquitin carboxyl-terminal hydrolase isozyme L3 (Homo sapiens) (UniProt P15374).
T2 sequence (whole entry): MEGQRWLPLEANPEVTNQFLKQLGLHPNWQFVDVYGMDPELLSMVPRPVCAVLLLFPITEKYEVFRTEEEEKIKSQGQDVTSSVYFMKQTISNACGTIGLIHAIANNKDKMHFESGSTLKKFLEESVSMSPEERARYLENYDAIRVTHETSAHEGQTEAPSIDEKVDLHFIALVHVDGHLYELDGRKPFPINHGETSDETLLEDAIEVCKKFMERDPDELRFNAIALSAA
In words: Inhibition of GST-tagged human UCHL3 using Ub-Rh110Gly as fluorogenic substrate at 40 uM preincubated for 1 hr followed by substrate addition by plate reader analysis.

Assay [13] deals with Chlamydia trachomatis. In words: Antimicrobial activity against Chlamydia trachomatis serovar L2 infected in human HeLa cells assessed as reduction in inclusion circumference at 3.13 ug/ml measured after 24 hrs of post-infection by microscopic analysis (reference value: 31.72 micrometer). The assay is classed as functional. The settings on record: dose 3.13 µg/ml.
For assay [14], the system named is Chlamydia trachomatis. In words: Antimicrobial activity against Chlamydia trachomatis serovar L2 infected in human HeLa cells assessed as reduction in inclusion area at 3.13 ug/ml measured after 24 hrs of post-infection by microscopic analysis. The class given is functional. To be noted: dose 3.13 µg/ml.

Sequence of Ubiquitin carboxyl-terminal hydrolase isozyme L1 (Homo sapiens) (P09936 whole entry, looked up): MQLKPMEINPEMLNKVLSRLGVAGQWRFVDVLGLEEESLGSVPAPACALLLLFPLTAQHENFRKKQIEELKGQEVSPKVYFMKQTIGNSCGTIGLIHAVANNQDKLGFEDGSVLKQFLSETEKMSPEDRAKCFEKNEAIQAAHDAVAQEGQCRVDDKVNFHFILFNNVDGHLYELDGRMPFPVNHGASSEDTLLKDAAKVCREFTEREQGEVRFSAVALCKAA

As for `N#Cc1ncc(C(=O)NCc2ccc(C(=O)NC34CC5CC(CC(C5)C3)C4)cc2)cn1`, the inhibition result in assay [1] was “Active”. Besides, the Activity is on record as 70.68 um2 in the assay on Chlamydia trachomatis [2]; 45.5% in the assay on Chlamydia trachomatis [4]; 15.38 um2 with Chlamydia trachomatis [5]; 66.5% in the assay on Chlamydia trachomatis [10]; 27.26 um in the assay on Chlamydia trachomatis [13]; 49.99 um2 in the assay with Chlamydia trachomatis [14]. Besides, the 50% inhibitory concentration (IC50) with Chlamydia trachomatis [3] was found to be 8.52 mg/L (≈ 20.5 µM); in [8], 7.7 µM. The inhibition result in [6] and in assay [12] was “inactive” throughout. The “fold change (FC)” value with Chlamydia trachomatis [7] is reported as 2. Further, the pIC50 in assay [8] is recorded as 5.11. Further, in assay [9], the Ki is 120 µM. Also, the outcome in the assay with Chlamydia trachomatis [11] was inactive.

As a reminder, the IC50 is the concentration needed to halve the response being measured. As a reminder, the pIC50 is the IC50 on a negative log10 scale, so that one unit is a factor of ten. A word on the Ki: it is the equilibrium dissociation constant of an inhibitor or competing ligand from its target.
